One may read the inhibition as the change of the read-out against control, counted positive when it falls. A word on the EC50: it is the concentration giving half of the maximal effect. Lower therefore signals greater potency. Usually Ki stands for the equilibrium dissociation constant of an inhibitor or competing ligand from its target.

Results on 16 compounds are retold here after patent US8592403B2, “Diazepine and diazocane compounds as MC4 agonists” (Pfizer Limited, priority 2008, dated 2013).

The nature of series [1]: In vitro metabolism rate determination, human liver microsome (HLM) assay. The note with it: human, liver microsomes, read-out: HLM: Clint, app. The format is in vitro ADME. The source says: In Vitro Metabolism Rate Determination (Human Liver Microsome (HLM); Rat Liver Microsome (RLM) Assay)
Many drugs are metabolised by the cytochrome P450 mono-oxygenase system. This enzyme is found in high concentrations in the liver and is bound to the endoplasmic reticulum of the hepatocyte. The enzyme system can be obtained in semi-purified state by the preparation of the hepatic microsomal fractions. Determining a compound's in vitro half-life in such a system provides a useful indicator of metabolic stability.
Methodology for In Vitro Rate Determination Using Hepatic & Supermix Microsomes
The method outlined below is for a total incubation volume of 1.5 ml.
1. The following mixture is prepared in a test tube:
2. Defrost microsomes at room temperature and add sufficient microsomes to give a final concentration of 0.5 nmol cytochrome P450/ml of incubation e.g. for a 1.5 ml incubation, the volume of microsomes to be added is:
3. Add sufficient MilliQ water to give a total incubation volume of 1.425 ml.
6. Add substrate to the incubation. The substrate should be at an initial concentration of 1 μM. The volume of substrate required in the remaining 1.162.5 ml incubation is calculated as follows: […]
8. Pre-incubate the tube containing the incubation mix, also positive control and no cofactor tubes in the thermostatically controlled shaking water bath set at 37° C. for approx 5 min.
9. Add NADP to initiate reaction (75 μl to each 1.162.5 ml incubation mix, 12.5 μl to positive control tube and 5 μl to no substrate tube) and take first time point immediately. The PNA positive control, no cofactor control and no substrate tubes are incubated for the total incubation time.
10. Remove 100 μl aliquots up to 9 different sampling points from 0 to 60 min (usually 0, 3, 5, 10, 15, 20, 30, 45 & 60 min) and terminate reaction. Longer incubation times can be used, but, after 120 min the microsomes deteriorate. The reaction may be terminated by addition of organic solvent, acid or base. At the end of the incubation process the no cofactor and no substrate controls in a similar manner i.e. terminate with the same reagent.
11. Analyse samples (including no cofactor and no substrate control) by a specific assay for the substrate to determine the disappearance kinetics.
Data obtained using the procedure described above can be quantified in terms of the substrates in vitro intrinsic clearance (Clint). Providing that the substrate concentration is below Km, the metabolism should be 1st order giving a log-linear plot of substrate disappearance with time.
The gradient of this line is the first order rate constant (k) for the substrate disappearance and is determined by regression analysis. This rate constant can be converted to the half-life according to the following equation.
Alternatively the rate constant can be converted to an intrinsic clearance (Clint) according to the following equation:— Clint(μl/min/mg)=(k/protein concentration in incubation (mg/ml))*1000
In general terms: Microsomes from liver hold many membrane-bound enzymes, among them those of drug oxidation.

In series [2] the target is T1, CYP3A4 (Homo sapiens, UniProt P08684).
T1 construct: utilizes human liver microsomes together with isoform-specific clinical drug probes; from tissue; host or cells: human liver microsomes
T1 sequence (P08684 whole entry, canonical isoform): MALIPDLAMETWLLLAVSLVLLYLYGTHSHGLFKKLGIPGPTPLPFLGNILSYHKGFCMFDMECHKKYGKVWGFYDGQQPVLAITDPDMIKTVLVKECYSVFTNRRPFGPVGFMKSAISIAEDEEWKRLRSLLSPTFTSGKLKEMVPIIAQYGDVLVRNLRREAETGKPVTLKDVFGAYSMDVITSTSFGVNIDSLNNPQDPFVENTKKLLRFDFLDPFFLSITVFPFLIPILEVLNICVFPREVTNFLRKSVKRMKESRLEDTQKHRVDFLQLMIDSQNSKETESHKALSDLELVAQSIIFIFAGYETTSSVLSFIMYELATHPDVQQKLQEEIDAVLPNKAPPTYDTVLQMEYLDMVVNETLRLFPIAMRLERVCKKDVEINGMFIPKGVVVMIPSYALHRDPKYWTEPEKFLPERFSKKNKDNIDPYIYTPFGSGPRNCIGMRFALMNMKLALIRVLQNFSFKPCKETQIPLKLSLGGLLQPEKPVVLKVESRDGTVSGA
The experiment in a line: High density DDI 3 μM cocktail screen in human liver microsomes, midazolam probe. It is filed as in vitro ADME. The note with it: human, liver microsomes, probe midazolam, read-out: % inhibition 3A4 @ 3 μM. The method, then:
High Density Drug-Drug Interactions (DDI) 3 μM Cocktail Screen
A drug interaction is a situation in which a substance affects the activity of another drug, i.e. the effects are increased or decreased, or together they produce a new effect that neither produces on its own. Drug interactions may be the result of various processes but a relatively common one is where one drug affects the pharmacokinetics of another by inhibiting the cytochrome P450 that metabolises it. Because of the importance of these phenomena, assessment of the DDI potential for new chemical entities (NCEs) is considered important early on in the drug discovery process.
The DDI cocktail screen in human liver microsomes (HLM) is run in a fully automated fashion and the aim of the screen is to provide a single-point assessment of the DDI potential of new chemical entity (NCE; tested at […]) against the 4 primary cytochrome P450 enzymes, 1A2, 2D6, 2C9 and 3A4.
The substrate cocktail approach for P450 DDI utilizes human liver microsomes together with isoform-specific clinical drug probes and permits the simultaneous measurement of the inhibition of P450 1A2, 2C9, 2D6 & 3A4 activities in a single incubation. This is run in high throughput with simultaneous detection of metabolites by LC-MS/MS. This method has been thoroughly tested and evaluated using standard compounds.
Appearance of the metabolite of each substrate is measured over time in the presence and absence of the NCE (test compound/inhibitor) at a concentration of 3 μM. The compounds are assessed for their inhibitory potential as a percentage value and interpreted using the following scheme.

Series [3] addresses MC4 receptor (Homo sapiens, UniProt P32245). The experiment in a line: MC4 EC50 functional potency (protocol E of US2005/0176772 / WO 2005/077935). The format is cell-based. On the procedure: The compounds of formula (I) of the present invention have utility as MCR4 agonists in the treatment of various disease states.
MC5 and MC4 EC50 activity was determined as described by assay protocols D and E, respectively, in US2005/0176772 (pages 28-30).

Series [4] has as its target T2, MC3 receptor (MC3R) (Homo sapiens, UniProt P41968).
T2 construct: expressed in transfected cells; host or cells: CHO-CRE MC3R cells (membranes)
The experiment in a line: Nle4, D-Phe7-α-MSH inhibition at the MC3 receptor (competition binding, SPA, CHO-CRE MC3R membranes). The source says:
Nle4, D-Phe7-α-MSH Inhibition at the MC3 Receptor
Nle4, D-Phe7-α-MSH is a stable analogue of melanocyte-stimulating hormone (MSH), which is an agonist at the MC3 receptor (MC3R). Compounds can be evaluated for their ability to inhibit Nle4, D-Phe7-α-MSH binding to membranes from cells expressing the MC3R using a competition binding assay versus [^125I] Nle4, D-Phe7-α-MSH.
Cells expressing the MC3R were subject to homogenisation and the membrane fragment isolated by differential centrifugation. CHO-CRE MC3R cell membranes were coupled to PVT-PEI-WGA SPA Beads type A for 2 hours, spun at 1000 RPM for 5 mins and suspended to a final assay concentration of 800 ug bead/ml (1.2 ug membrane, 40 ug bead per well). Bead/membrane mix was incubated with 0.06 nM [^125I] Nle4, D-Phe7-α-MSH and 11 half-log concentrations of competitor ligand, in duplicate, in a total volume of 50 μl buffer per well (25 mM HEPES, 1 mM MgCl2, 2.5 mM CaCl2, 1% Pluronic F68, 1 complete EDTA protease inhibitor tablet/50 ml pH7). Non-specific binding was determined by the inclusion of 100 nM SHU9119. The reaction was initiated by the addition of bead/membranes and plates were incubated at room temperature for 12 hours (the first hour on a plate shaker), after which the amount of radioactivity present was determined using a Wallac plate counter. Ki values were determined by data analysis using appropriate software.

T2 sequence (P41968 whole entry): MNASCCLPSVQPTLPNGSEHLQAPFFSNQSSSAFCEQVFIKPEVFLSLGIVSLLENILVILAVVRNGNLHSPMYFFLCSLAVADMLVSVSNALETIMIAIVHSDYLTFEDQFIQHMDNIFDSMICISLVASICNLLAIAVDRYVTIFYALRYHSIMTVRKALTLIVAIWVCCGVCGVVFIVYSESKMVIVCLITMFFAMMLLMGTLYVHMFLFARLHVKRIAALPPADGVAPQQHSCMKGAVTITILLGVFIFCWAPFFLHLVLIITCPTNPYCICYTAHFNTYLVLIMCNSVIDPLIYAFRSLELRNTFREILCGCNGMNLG
Chain of MC4 receptor (P32245 whole entry): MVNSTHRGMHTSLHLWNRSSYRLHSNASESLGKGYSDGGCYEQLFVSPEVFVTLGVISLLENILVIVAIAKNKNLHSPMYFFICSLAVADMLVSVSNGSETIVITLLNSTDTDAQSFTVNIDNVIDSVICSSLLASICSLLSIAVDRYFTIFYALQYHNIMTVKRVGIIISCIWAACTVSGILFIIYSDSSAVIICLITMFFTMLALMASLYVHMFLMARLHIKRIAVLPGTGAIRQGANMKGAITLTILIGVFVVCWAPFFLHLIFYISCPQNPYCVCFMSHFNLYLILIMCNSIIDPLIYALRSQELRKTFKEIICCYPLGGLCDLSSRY

Regarding `COc1ccc([C@@H]2CN(c3cccnn3)C[C@H]2C(=O)N2CCC(c3ccc(Cl)cc3)N(C(C)=O)CC2)c(F)c1` (mixture of isomers) [Example 93], the microsomal CLint at 1 μM in series [1] came to 29.3 µL/min/mg. For the same compound, the inhibition at 3 µM in series [2] is 18.9%. Besides, the half-maximal effective concentration (EC50) in series [3] stood at 14.5 nM. The same compound registered a Ki in series [4] of 4900 nM.
The matching figures for `COc1ccc([C@@H]2CN(c3cccnn3)C[C@H]2C(=O)N2CCC(c3ccc(Cl)cc3)N(S(C)(=O)=O)CC2)c(F)c1` (mixture of isomers) [Example 94]: 78.1 µL/min/mg, 46.6%, 25.6 nM and 6690 nM.
With `CC(C)(C)N1C[C@@H](C(=O)N2CCC[C@@H](c3ccc(Cl)cc3)N(C(=O)C3CC3)CC2)[C@H](c2ccc(F)cc2F)C1` [Example 7], the microsomal CLint at 1 μM in series [1] was 26.2 µL/min/mg. The compound further displayed an EC50 in series [3] of 11.9 nM. The compound further gave a Ki in series [4] of 10100 nM.
For `CC(C)C(=O)N1CCN(C(=O)[C@@H]2CN(c3ccc(=O)n(C)n3)C[C@H]2c2ccc(F)cc2F)CCC[C@H]1c1ccc(Cl)cc1` [Example 33, 6-[(3S,4R)-3-{[5S-(4-chlorophenyl)-4-isobutyryl-1,4-diazocan-1-yl]carbonyl}-4-(2,4-difluorophenyl)pyrrolidin-1-yl]-2-methylpyridazin-3(2H)-one], the microsomal CLint at 1 μM in series [1] is 17 µL/min/mg. In addition, the inhibition at 3 µM in series [2] was 45.2%. For the same compound, the concentration for a half-maximal effect (EC50) in series [3] is 3.5 nM.
`Cn1nc(N2C[C@@H](C(=O)N3CCC[C@@H](c4ccc(Cl)cc4)N(C(=O)C4CC4)CC3)[C@H](c3ccc(F)cc3F)C2)ccc1=O` [Example 34]: the microsomal CLint at 1 μM in series [1] was found to be 30.9 µL/min/mg. Moreover, the inhibition at 3 µM in series [2] was determined as 69.2%. A half-maximal effect in series [3] (EC50) was put at 3.9 nM.
For the compound `CC(C)C(=O)N1CCN(C(=O)[C@@H]2CN(c3ccc(=O)n(C)n3)C[C@H]2c2ccc(Cl)cn2)CCC[C@H]1c1ccc(Cl)cc1` [Example 37, 6-[(3S,4S)-3-{[5S-(4-chlorophenyl)-4-isobutyryl-1,4-diazocan-1-yl]carbonyl}-4-(5-chloropyridin-2-yl)pyrrolidin-1-yl]-2-methylpyridazin-3(2H)-one], the microsomal CLint at 1 μM in series [1] worked out at 13.9 µL/min/mg. Besides, the inhibition at 3 µM in series [2] is 42.3%. Besides, the EC50 in series [3] stood at 2.11 nM.
On to `CCN(CC)C(=O)N1CCN(C(=O)[C@@H]2CN(C(C)(C)C)C[C@H]2c2ccc(F)cc2F)CCC[C@H]1c1ccc(Cl)cc1` [Example 44, 4-{[(3S,4R)-1-tert-butyl-4-(2,4-difluorophenyl)pyrrolidin-3-yl]carbonyl}-8S-(4-chlorophenyl)-N,N-diethyl-1,4-diazocane-1-carboxamide], for which the microsomal CLint at 1 μM in series [1] turned out to be 173 µL/min/mg. In addition, the inhibition at 3 µM in series [2] came to 54.5%. For the same compound, a half-maximal effect in series [3] (EC50) was put at 5.58 nM.
Regarding `CC(C)(C)N1C[C@@H](C(=O)N2CCC[C@@H](c3ccc(Cl)cc3)N(C(=O)N3CCOCC3)CC2)[C@H](c2ccc(F)cc2F)C1` [Example 46], the microsomal CLint at 1 μM in series [1] was 71.1 µL/min/mg. Also, in series [2], the inhibition at 3 µM was 27.3%. Further, it took 19.7 nM to reach a half-maximal effect in series [3] (EC50).
The matching figures for `COC(=O)N1CCN(C(=O)[C@@H]2CN(c3ccc(=O)n(C)n3)C[C@H]2c2ccc(Cl)cn2)CCC[C@H]1c1ccc(Cl)cc1` [Example 47, methyl 8S-(4-chlorophenyl)-4-{[(3S,4S)-4-(5-chloropyridin-2-yl)-1-(1-methyl-6-oxo-1,6-dihydropyridazin-3-yl)pyrrolidin-3-yl]carbonyl}-1,4-diazocane-1-carboxylate]: 20.6 µL/min/mg, 54.2% and 5.11 nM.
Turning to `COC(=O)N1CCN(C(=O)[C@@H]2CN(c3ccc4nncn4n3)C[C@H]2c2ccc(Cl)cn2)CCC[C@@H]1c1ccc(Cl)cc1` [Example 51], the inhibition at 3 µM in series [2] stood at 75.2%. The same compound registered an EC50 in series [3] of 3.29 nM. Besides, in series [4], the Ki turned out to be 212 nM.
Take `CC(C)OC(=O)N1CCN(C(=O)[C@@H]2CN(C(C)(C)C)C[C@H]2c2ccc(F)cc2F)CCC[C@H]1c1ccc(Cl)cc1` [Example 53]: in series [1], the microsomal CLint at 1 μM worked out at 27.7 µL/min/mg. Further, in series [2], the inhibition at 3 µM was found to be 58.5%. Moreover, the EC50 in series [3] worked out at 14.7 nM.
The matching figures for `CC(C)(C)N1C[C@@H](C(=O)N2CCC[C@@H](c3ccc(Cl)cc3)N(C(=O)C3CCOCC3)CC2)[C@H](c2ccc(F)cc2F)C1` [Example 59, 1-{[(3S,4R)-1-tert-butyl-4-(2,4-difluorophenyl)pyrrolidin-3-yl]carbonyl}-5S-(4-chlorophenyl)-4-(tetrahydro-2H-pyran-4-ylcarbonyl)-1,4-diazocane]: 55.4 µL/min/mg, 38.4% and 25.2 nM.
In the case of `CC(C)(C)N1C[C@@H](C(=O)N2CCC[C@@H](c3ccc(Cl)cc3)N(C(=O)C3CC(F)(F)C3)CC2)[C@H](c2ccc(F)cc2F)C1` [Example 61], in series [1], the microsomal CLint at 1 μM is 13.9 µL/min/mg. Also, the inhibition at 3 µM in series [2] worked out at 40%. This compound also showed a half-maximal effective concentration (EC50) in series [3] of 25.3 nM.
On to `CC(C)(C)N1C[C@@H](C(=O)N2CCC[C@@H](c3ccc(Cl)cc3)N(C(=O)C3CC(F)(F)C3)CC2)[C@H](c2ccc(Cl)cn2)C1` [Example 63], for which the microsomal CLint at 1 μM in series [1] is 9.43 µL/min/mg. The inhibition at 3 µM in series [2] turned out to be 55.6%. This compound also came in with an EC50 in series [3] of 85.3 nM.
For the compound `CC(C)(C)N1C[C@@H](C(=O)N2CCC[C@@H](c3ccc(Cl)cc3)N(C(=O)CC3CC3)CC2)[C@H](c2ccc(F)cc2F)C1` [Example 65], in series [1], the microsomal CLint at 1 μM came to 23.1 µL/min/mg. The compound also gave an EC50 in series [3] of 16.6 nM. In addition, the affinity in series [4], expressed as Ki, was 6860 nM.
On to `COC(=O)N1CCN(C(=O)[C@@H]2CN(c3ccc4nncn4n3)C[C@H]2c2ccc(F)cc2F)CCC[C@H]1c1ccc(Cl)cc1` [Example 96], for which the microsomal CLint at 1 μM in series [1] came out at 31.3 µL/min/mg. In series [2], the inhibition at 3 µM is 76.9%. For the same compound, a half-maximal effect in series [3] (EC50) was put at 0.852 nM.
